The structures appear in SMILES notation.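 How tested: cells in 96-well plates exposed to compound for 48 hours at five concentrations. GI50: concentration for 50% inhibition of growth. Definition used: TGI = concentration required for complete inhibition of growth.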 Some results are limits rather than exact numbers.

Test systems include SNB-19 CNS; EKVX NSCLC; SK-MEL-5 melanoma; OVCAR-4 ovarian; HOP-92 NSCLC; OVCAR-8 ovarian; UACC-62 melanoma; NCI-H23 lung; M14 melanoma; A549 NSCLC.
Holding throughout (assay): NCI-60 cell line screen, 48 h

In the case of `CC(=O)Oc1ccccc1C(=O)/C=C/c1cccc([N+](=O)[O-])c1`, the GI50 was 4.43 µM with SNB-19 CNS; 11.3 µM with EKVX NSCLC; 3.03 µM in the assay on SK-MEL-5 melanoma; 5.95 µM in the assay with OVCAR-4 ovarian; 7.91 µM in the assay on HOP-92 NSCLC; 3.11 µM in the assay with OVCAR-8 ovarian. Also, the GI50 in the assay with UACC-62 melanoma was 3.29 µM; in the assay on NCI-H23 lung, 5.09 µM; in the assay with M14 melanoma it was 3.93 µM; in the assay with A549 NSCLC, 5.48 µM. The TGI in the assay with SNB-19 CNS was 15.3 µM; in the assay on EKVX NSCLC, 26.6 µM; in the assay on SK-MEL-5 melanoma, 9.07 µM; in the assay with OVCAR-4 ovarian it was 23.1 µM; in the assay with HOP-92 NSCLC, 22.5 µM; in the assay on OVCAR-8 ovarian it was 10.4 µM. Also, the TGI in the assay with UACC-62 melanoma turned out to be 12.2 µM; in the assay with NCI-H23 lung it was 19.6 µM; with M14 melanoma, 14 µM; in the assay with A549 NSCLC it was 23.3 µM.

With `O=C(Oc1cccnc1)c1ccsc1Nc1ccnc(C(F)(F)F)c1`, the GI50 in the assay on SNB-19 CNS is 20.7 µM; in the assay on EKVX NSCLC, 34.2 µM; in the assay on SK-MEL-5 melanoma, 5.26 µM; in the assay on OVCAR-4 ovarian it was 5.21 µM; in the assay on HOP-92 NSCLC, 3.14 µM; in the assay on OVCAR-8 ovarian it was 4.14 µM. Also, the GI50 is 44.8 µM in the assay with UACC-62 melanoma, 4.07 µM in the assay on NCI-H23 lung, 9.39 µM with M14 melanoma and 7.68 µM in the assay with A549 NSCLC. Besides, the TGI with SNB-19 CNS is more than 100 µM; with EKVX NSCLC, more than 100 µM; in the assay with SK-MEL-5 melanoma it was 30.1 µM; in the assay with OVCAR-4 ovarian, more than 100 µM; in the assay with HOP-92 NSCLC, 46.5 µM; in the assay with OVCAR-8 ovarian, more than 100 µM. The TGI in the assay with UACC-62 melanoma, in the assay with NCI-H23 lung, in the assay on M14 melanoma and with A549 NSCLC was more than 100 µM in each case.

`N#Cc1c(N)[nH]c2ccc(Sc3ccccc3)cc12`: the TGI in the assay with SNB-19 CNS stood at 17.2 µM; in the assay with EKVX NSCLC, 11.7 µM; with SK-MEL-5 melanoma, 4.43 µM; in the assay on OVCAR-4 ovarian it was 21.6 µM; in the assay with HOP-92 NSCLC it was 19.8 µM; in the assay on OVCAR-8 ovarian it was 12 µM. Further, the TGI was 2.5 µM with UACC-62 melanoma, 10.3 µM with NCI-H23 lung, 3.5 µM in the assay with M14 melanoma and 12.1 µM in the assay with A549 NSCLC.

For `CCOC(=O)C(=O)Nc1cc(Cl)ccc1Cl`, the TGI in the assay with SNB-19 CNS, in the assay on EKVX NSCLC, with SK-MEL-5 melanoma, with OVCAR-4 ovarian, in the assay with HOP-92 NSCLC and in the assay on OVCAR-8 ovarian was more than 100 µM each time. The TGI with UACC-62 melanoma, with NCI-H23 lung, in the assay with M14 melanoma and in the assay on A549 NSCLC was more than 100 µM each time.

For `CC(C)=CCC/C(C)=C/CC/C(C)=C/CC/C=C(\C)CC/C=C(\C)CCC(=O)Nc1ccn(C2OC(CO)C(O)C2(F)F)c(=O)n1` (stereo not given), the GI50 is 0.0245 µM in the assay on SNB-19 CNS; 0.112 µM with EKVX NSCLC; 0.168 µM in the assay on SK-MEL-5 melanoma; 1.91 µM with OVCAR-4 ovarian; 0.435 µM in the assay with HOP-92 NSCLC; 0.0652 µM in the assay with OVCAR-8 ovarian. Moreover, the GI50 with UACC-62 melanoma was 0.287 µM; in the assay with NCI-H23 lung, 0.0324 µM; in the assay with M14 melanoma, 0.0519 µM; in the assay on A549 NSCLC it was 0.344 µM. Also, the TGI with SNB-19 CNS is 11.7 µM; with EKVX NSCLC, 17 µM; in the assay with SK-MEL-5 melanoma, 4.75 µM; with OVCAR-4 ovarian, 8.67 µM; in the assay with HOP-92 NSCLC it was 11.5 µM; in the assay with OVCAR-8 ovarian, more than 100 µM. For the same compound, the TGI was found to be 15.2 µM in the assay on UACC-62 melanoma, 12.4 µM with NCI-H23 lung, 1.2 µM in the assay on M14 melanoma and 28.3 µM with A549 NSCLC.

Take `COc1ccc(OC)c(Cn2cc3c(c2)-c2oncc2CC3)c1`: the GI50 in the assay with SNB-19 CNS was 4.74 µM; in the assay with EKVX NSCLC, 4.22 µM; in the assay on SK-MEL-5 melanoma, 2.61 µM; in the assay with OVCAR-4 ovarian, 5.74 µM; in the assay on HOP-92 NSCLC it was 3.25 µM; in the assay on OVCAR-8 ovarian it was 5.27 µM. In addition, the GI50 was 3.97 µM with UACC-62 melanoma, 3.8 µM with NCI-H23 lung, 2.15 µM in the assay with M14 melanoma and 4.42 µM with A549 NSCLC. Besides, the TGI in the assay on SNB-19 CNS was more than 100 µM; with EKVX NSCLC, more than 100 µM; in the assay with SK-MEL-5 melanoma, 8.99 µM; in the assay on OVCAR-4 ovarian, more than 100 µM; in the assay with HOP-92 NSCLC it was 57.8 µM; in the assay on OVCAR-8 ovarian, more than 100 µM. Moreover, the TGI with UACC-62 melanoma was more than 100 µM; in the assay with NCI-H23 lung it was more than 90.2 µM; in the assay on M14 melanoma, 9.48 µM; in the assay on A549 NSCLC, more than 100 µM.

With `CCN(CCO)CC(C)Nc1ccc([N+](=O)[O-])c2sc3ccccc3c(=O)c12` (stereo not given), the GI50 with SNB-19 CNS was 2.34 µM; in the assay on EKVX NSCLC, 1.67 µM; in the assay on SK-MEL-5 melanoma, 1.52 µM; in the assay on OVCAR-4 ovarian, 3.32 µM; with HOP-92 NSCLC, 1.6 µM; with OVCAR-8 ovarian, 1.18 µM. The GI50 in the assay on UACC-62 melanoma was 1.63 µM; with NCI-H23 lung, 1.78 µM; with M14 melanoma, 1.54 µM; in the assay with A549 NSCLC, 0.535 µM. The TGI in the assay with SNB-19 CNS was 19 µM; with EKVX NSCLC, 6.28 µM; with SK-MEL-5 melanoma it was 5.56 µM; with OVCAR-4 ovarian, 15.7 µM; in the assay with HOP-92 NSCLC, 7.7 µM; with OVCAR-8 ovarian, 4.19 µM. The TGI was determined as 12.8 µM in the assay with UACC-62 melanoma, 6.4 µM in the assay on NCI-H23 lung, 3.45 µM with M14 melanoma and 1.97 µM in the assay on A549 NSCLC.

For `CCOc1nc(N)nc(C)c1N=Nc1ccc(Cl)cc1`, the TGI is more than 100 µM with SNB-19 CNS; more than 100 µM with EKVX NSCLC; more than 100 µM in the assay on SK-MEL-5 melanoma; more than 100 µM with OVCAR-4 ovarian; 88 µM with HOP-92 NSCLC; more than 100 µM in the assay with OVCAR-8 ovarian. In addition, the TGI in the assay with UACC-62 melanoma, in the assay on NCI-H23 lung, with M14 melanoma and in the assay on A549 NSCLC was more than 100 µM each time.

For `O=C1NC(=O)C(c2cccc(Cl)c2)=C1Nc1ccc(O)c(Cl)c1`, the GI50 with SNB-19 CNS is 15.9 µM; with EKVX NSCLC, 10.6 µM; in the assay on SK-MEL-5 melanoma it was 5.46 µM; with OVCAR-4 ovarian it was 8.98 µM; in the assay with HOP-92 NSCLC, 5.76 µM; with OVCAR-8 ovarian, 14 µM. Also, the GI50 is 7.63 µM with UACC-62 melanoma, 12.9 µM in the assay with NCI-H23 lung, 12.1 µM in the assay on M14 melanoma and 9.88 µM in the assay with A549 NSCLC. For the same compound, the TGI is more than 25 µM with SNB-19 CNS; more than 25 µM in the assay with EKVX NSCLC; 18.6 µM in the assay on SK-MEL-5 melanoma; more than 25 µM with OVCAR-4 ovarian; more than 25 µM in the assay with HOP-92 NSCLC; more than 25 µM in the assay on OVCAR-8 ovarian. The TGI in the assay on UACC-62 melanoma, in the assay with NCI-H23 lung, with M14 melanoma and with A549 NSCLC was more than 25 µM in each case.

For the origin of these results see PubChem BioAssay (NCI).
